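A five-concentration, 48-hour dose response in 96-well plates underlies each endpoint, interpolated linearly between surrounding concentrations. GI50: concentration for 50% inhibition of growth.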 Calls of active or inactive are those of the source. Rule as the data show it: active = GI50 up to about 1.1 µM and inactive = higher.
What was measured:
Assay in all cases: growth of human tumour cells (NCI), 48 h
KM12 = tested on: KM12
HCT-15 = tested on: HCT-15
NCI-H226 = tested on: NCI-H226
OVCAR-8 = tested on: OVCAR-8
U-251 = tested on: U-251
HT-29 = tested on: HT-29
Hs-578T = tested on: Hs-578T
Malme-3M = tested on: Malme-3M
HOP-62 = tested on: HOP-62
RPMI-8226 = tested on: RPMI-8226
MOLT-4 = tested on: MOLT-4
SNB-19 = tested on: SNB-19
SW-620 = tested on: SW-620
COLO 205 = tested on: COLO 205
HL-60 = tested on: HL-60
NCI/ADR-RES = tested on: NCI/ADR-RES
PC-3 = tested on: PC-3
DU-145 = tested on: DU-145
HCT-116 = tested on: HCT-116
DLD-1 = tested on: DLD-1

| SMILES | GI50 (KM12) | GI50 (HCT-15) [µM] | GI50 (NCI-H226) | GI50 (OVCAR-8) | GI50 (U-251) | GI50 (HT-29) | GI50 (Hs-578T) | GI50 (Malme-3M) | GI50 (HOP-62) | GI50 (RPMI-8226) | GI50 (MOLT-4) | GI50 (SNB-19) | GI50 (SW-620) | GI50 (COLO 205) | GI50 (HL-60) | GI50 (NCI/ADR-RES) | GI50 (PC-3) | GI50 (DU-145) | GI50 (HCT-116) | GI50 (DLD-1) |
| --- | --- | --- | --- | --- | --- | --- | --- | --- | --- | --- | --- | --- | --- | --- | --- | --- | --- | --- | --- | --- |
| COc1cc2c(c(O)c1OC)C(=O)C1CCC(=O)N1C2c1cccc2ccccc12 (stereo not drawn) | 42.3 µM (inactive) | 41.3 | > 100 µM (inactive) | 49.1 µM (inactive) | 37.4 µM (inactive) | 42.5 µM (inactive) | 82.6 µM (inactive) | 81.8 µM (inactive) | 54.8 µM (inactive) | 20.7 µM (inactive) | 21.4 µM (inactive) | 41.9 µM (inactive) | 39.7 µM (inactive) | 15.4 µM (inactive) | 20.6 µM (inactive) | 41.2 µM (inactive) | 25.2 µM (inactive) | > 100 µM (inactive) | 50.5 µM (inactive) |  |
| Cc1cc(=O)oc2c(CNC(CO)C(=O)O)c(O)ccc12 (stereo not drawn) | > 100 µM (inactive) | > 100 | > 100 µM (inactive) | > 100 µM (inactive) | > 100 µM (inactive) | > 100 µM (inactive) | > 100 µM (inactive) | > 100 µM (inactive) | > 100 µM (inactive) | > 100 µM (inactive) | > 100 µM (inactive) | > 100 µM (inactive) | > 100 µM (inactive) | > 100 µM (inactive) | > 100 µM (inactive) | > 100 µM (inactive) | > 100 µM (inactive) | > 100 µM (inactive) | > 100 µM (inactive) |  |
| N#CC1=C(S)N(C2OC(CO)C(O)C(O)C2O)C(c2ccccc2)=CC1c1ccccc1 (stereo not drawn) | 66.1 µM (inactive) | 18.8 | 36.2 µM (inactive) | 45.3 µM (inactive) | 43 µM (inactive) | 48.9 µM (inactive) | 41.5 µM (inactive) | 52.1 µM (inactive) | > 100 µM (inactive) | 46.5 µM (inactive) | 29.8 µM (inactive) | 64.6 µM (inactive) | 5.66 µM (inactive) | 44.2 µM (inactive) | 40.9 µM (inactive) | > 100 µM (inactive) | 30.7 µM (inactive) | > 100 µM (inactive) | 35.6 µM (inactive) |  |
| Cc1cc(=O)oc2cc3oc(N(C)c4ccccc4)nc(=O)c3cc12 | > 100 µM (inactive) | > 100 | > 100 µM (inactive) | 42.4 µM (inactive) | 56 µM (inactive) | > 100 µM (inactive) | 46.7 µM (inactive) | > 100 µM (inactive) | > 100 µM (inactive) | > 100 µM (inactive) | > 100 µM (inactive) | 67.9 µM (inactive) | > 100 µM (inactive) | > 100 µM (inactive) | > 100 µM (inactive) | > 100 µM (inactive) | > 100 µM (inactive) | > 100 µM (inactive) | > 100 µM (inactive) |  |
| CN(C)c1ccc(-c2nc(-c3cc4c(ccc5ccccc54)oc3=O)cs2)cc1 | > 100 µM (inactive) | > 100 | > 100 µM (inactive) | > 100 µM (inactive) | > 100 µM (inactive) | > 100 µM (inactive) | > 100 µM (inactive) | > 100 µM (inactive) | > 100 µM (inactive) | > 100 µM (inactive) | > 100 µM (inactive) | > 100 µM (inactive) | > 100 µM (inactive) | > 100 µM (inactive) | > 100 µM (inactive) | > 100 µM (inactive) | > 100 µM (inactive) | > 100 µM (inactive) | > 100 µM (inactive) |  |
| O=C(O)CCCNc1ncc2c(n1)-c1ccccc1OC2 | > 100 µM (inactive) | > 100 | > 100 µM (inactive) | > 100 µM (inactive) | > 100 µM (inactive) | > 100 µM (inactive) | > 100 µM (inactive) | > 100 µM (inactive) | > 100 µM (inactive) | > 100 µM (inactive) | > 100 µM (inactive) | > 100 µM (inactive) | > 100 µM (inactive) | > 100 µM (inactive) | 30.1 µM (inactive) | > 100 µM (inactive) | > 100 µM (inactive) | > 100 µM (inactive) | > 100 µM (inactive) |  |
| C1CCN2CC34CC(CC5CCCN(C6CCCC3N6)C54)C2C1 (stereo not drawn) | > 100 µM (inactive) | > 100 | > 100 µM (inactive) | > 100 µM (inactive) | > 100 µM (inactive) | > 100 µM (inactive) | > 100 µM (inactive) | > 100 µM (inactive) | > 100 µM (inactive) | > 100 µM (inactive) | > 100 µM (inactive) | > 100 µM (inactive) | > 100 µM (inactive) | > 100 µM (inactive) | > 100 µM (inactive) | > 100 µM (inactive) | > 100 µM (inactive) | > 100 µM (inactive) | > 100 µM (inactive) |  |
| COC(=O)C1(C(C)C)CCc2c(OC)ccc(OC)c2C1=O (stereo not drawn) | > 100 µM (inactive) | > 100 |  | > 100 µM (inactive) | > 100 µM (inactive) | > 100 µM (inactive) |  | > 100 µM (inactive) | > 100 µM (inactive) | 93.3 µM (inactive) | 74.3 µM (inactive) | > 100 µM (inactive) | > 100 µM (inactive) | > 100 µM (inactive) | > 100 µM (inactive) |  |  |  | > 100 µM (inactive) | > 100 µM (inactive) |

Source: ChEMBL document CHEMBL1201862, “PubChem BioAssay data set” (2004)
